1 compound from PMC6445123 (Scientific Reports, 2019) can be followed below.

Where two headings read alike, the source gives them in different places.

What all share (format): biochemical
Experiment [1] deals with T1, recombinant active Casp6 (Casp6-WT) (Homo sapiens, UniProt P55212, INS179NQTEKLDTNITEVD).
T1 construct: generating mainly large subunit with a linker (LS-L), small subunit (SS), and a minor amount of large subunit (LS); His (C); made in house; host or cells: E. coli BL21(DE3)pLysS
T1 sequence (P55212 24-193 limits assumed): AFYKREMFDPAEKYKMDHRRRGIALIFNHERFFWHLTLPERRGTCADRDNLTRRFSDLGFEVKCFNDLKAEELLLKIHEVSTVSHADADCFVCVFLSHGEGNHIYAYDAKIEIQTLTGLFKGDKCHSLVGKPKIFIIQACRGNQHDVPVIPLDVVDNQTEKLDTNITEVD
T1 sequence (P55212 194-293 limits assumed): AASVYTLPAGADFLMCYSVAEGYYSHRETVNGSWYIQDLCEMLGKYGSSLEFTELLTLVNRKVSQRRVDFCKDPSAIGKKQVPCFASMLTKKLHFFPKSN
The experiment in a line: Fluorescence-based Ac-VEID-AFC cleavage assay (Casp6 activity, IC50 determination). On the procedure:
(§1) To assess the potency of in silico hits, a fluorescence-based Ac-VEID-AFC cleavage assay was used to measure recombinant active Casp6 reaction rate in the absence or presence of 100 µM concentration of compounds. A 30% inhibition cut off was arbitrarily chosen for further investigation of putative inhibitors. […] AFC signal interference by compound intrinsic fluorescence was ruled out (Fig. S4). Casp6 inhibition was confirmed for seven compounds (C7, C13, C14, S2, S10, S11 and S13) using a colorimetric Ac-VEID-pNA cleavage assay (Table 2, Fig. S3).
Casp6 active sites were quantified using zVAD-FMK (N-benzyloxycarbonyl-Val-Ala-Asp-(O-methyl)-fluoromethylketone, MP Biomedicals, Santa Ana, CA, USA)[51],[64]. Casp6 activity was measured in Stennicke’s buffer (SB: 20 mM piperazine-N,N′-bis-(2-ethanesulfonic acid) pH 7.2, 100 mM NaCl, 10 mM DTT, 1 mM EDTA, 0.1% 3-[(3-cholamidopropyl)-dimethylammonio]-2-hydroxy-1-propanesulfonic acid, 10% sucrose)[65] using 40 µM Ac-VEID-AFC (Ac-Val-Glu-Ile-Asp-7-Amino-4-trifluoromethylcoumarin, Enzo Life Sciences, Farmingdale, NY, USA)[64] and 10-250 nM active site titrated Casp6. Reactions were initiated by Ac-VEID-AFC addition and followed for 20 min at 37 °C in a black clear bottom 96-well microplate (Costar, Corning, NY, USA) in Synergy H4 Hybrid instrument (BioTek, Winooski, VT, USA) with excitation/emission at 380/505 nm. Released AFC was calculated from AFC standard curve (0-25 µM). Casp6 VEIDase activity (released pmol AFC/min) was calculated from the initial linear reaction part. Ac-VEID-AFC hydrolysis initial velocities were measured with 10 nM active-site titrated Casp6 and […] Ac-VEID-AFC. Initial velocities v versus substrate concentration [S] were fit to a rectangular hyperbola using Michaelis-Menten equation in GraphPad Prism 5 (GraphPad Software, La Jolla, CA, USA).
(§2) In fluorescence-based Casp6 activity assay, 10 µM Ac-VEID-AFC was added to 20 nM Casp6 in SB with 100 μM compound and 1% dimethyl sulfoxide (DMSO), and reaction rate was measured for 20 min at 37 °C as above. Compound potency was calculated by normalising Ac-VEID-AFC cleavage rate to 1% DMSO control. In colorimetric Casp6 activity assay, 200 µM Ac-VEID-pNA (N-acetyl-Val-Glu-Ile-Asp-p-nitroanilide, Enzo Life Sciences) was added to 200 nM Casp6 in SB with 100 μM compound, and Ac-VEID-pNA cleavage rate was measured at 37 °C for 30 min in clear 96-well plate (Sartstedt, Nümbrecht, Germany) using Synergy H4 plate reader at 405 nm. Absorbance was converted to the released pNA amount based on a standard curve of 0–250 µM pNA. Cleavage rates were calculated from the linear assay phase and were normalised to 1% DMSO control. In Casp6-C163A cleavage assay, 0.5 ng/µl Casp6-WT was preincubated with 100 µM inhibitor, 5 µM Q-VD-OPh or 1% DMSO in SB (30 min, RT), followed by transfer on ice, addition of 0.5 µg/µl Casp6-C163A, and incubation (37 °C, 5, 10 and 15 min). Reactions were stopped by adding SDS-PAGE sample buffer (62.5 mM Tris pH 6.8, 2% SDS, 0.1 M DTT, 0.01% Bromphenol Blue, 10% glycerol) and heating (5 min, 95 °C). Samples (2 µl) were analysed on 15% SDS-PAGE gels, proteins were stained with Coomassie blue, and gels were de-stained with 10% acetic acid. The intensities of protein bands were quantified from scanned gels using ImageJ. The band intensity of Casp6-C163A without a prodomain was plotted against the time and the Casp6-C163A cleavage rates were calculated from the slopes of linear plots. The % activity of Casp6-WT in the presence of inhibitors was calculated relative to DMSO control.
IC50 values were determined against 20 nM Casp6 active sites in fluorescence-based Casp6 activity assay with 10 µM Ac-VEID-AFC and 1 nM-500 µM inhibitor. IC50 was calculated with GraphPad Prism 5 by a nonlinear regression fit for log inhibitor vs relative Casp6 activity (% DMSO control) using a Hill slope of – 1, and top and bottom constraints of 100 and 0, respectively.

The target in a further experiment is T2, Casp6 (Homo sapiens, UniProt P55212, INS179NQTEKLDTNITEVD).
T2 construct: generating mainly large subunit with a linker (LS-L), small subunit (SS), and a minor amount of large subunit (LS); His (C); made in house; host or cells: E. coli BL21(DE3)pLysS
T2 sequence (P55212 24-193 limits assumed): T1 sequence (P55212 24-193 limits assumed)
T2 sequence (P55212 194-293 limits assumed): T1 sequence (P55212 194-293 limits assumed)
The experiment can be described thus: Determination of inhibition mechanism and Ki (Michaelis-Menten, Lineweaver-Burk plots). Here is the method: The inhibition of Casp6 activity with S10G and C13 was reversible (Fig. S5). To determine mode of inhibition, kinetic analyses were conducted on Casp6 using S10G and C13 (Fig. 4a). […] (Fig. 4b).
Compounds, S10G (2.5 µM, 4.2 µM, 10 µM), and C13 (5 µM, 14 µM, 50 µM), were added to 20 nM active site titrated Casp6 and enzyme activity was measured with eight different Ac-VEID-AFC substrate concentrations (5.0 μM–200 μM) using fluorescence-based Casp6 activity assay as above. The apparent KM and Vmax values were determined through nonlinear regression analysis of Michaelis-Menten plots (v vs. [S]) using GraphPad Prism 5. The inhibition mode was determined from the pattern of converging Lineweaver-Burk plots (1/v vs. 1/[S])[54]. The dissociation constant (Ki) for Casp6-inhibitor complex was determined from the x-axis intercept (which is equal to −Ki) in the plot of Lineweaver-Burk slopes vs. inhibitor concentration. Alternatively, inhibition model and Ki were determined by global fit of kinetic data to the competitive, noncompetitive, noncompetitive (mixed) or uncompetitive inhibition models using respective equations in GraphPad Prism 5.

Another experiment deals with T3, recombinant active Casp6 (Homo sapiens, UniProt P55212, INS179NQTEKLDTNITEVD).
T3 construct: generating mainly large subunit with a linker (LS-L), small subunit (SS), and a minor amount of large subunit (LS); His (C); made in house; host or cells: E. coli BL21(DE3)pLysS
T3 sequence (P55212 24-193 limits assumed): T1 sequence (P55212 24-193 limits assumed)
T3 sequence (P55212 194-293 limits assumed): T1 sequence (P55212 194-293 limits assumed)
The experiment can be described thus: Colorimetric Ac-VEID-pNA cleavage assay. The conditions noted are these: 100 µM compound, 200 µM Ac-VEID-pNA, 200 nM Casp6. On the procedure:
as §1, §2

As for `COC(=O)c1cc(CNC(=O)C2Cc3ccccc3O2)cc(NC(=O)c2ccco2)c1` (stereo not shown) [Compound C13], the inhibition at 100 µM in experiment [1] (100 µM compound, 10 µM Ac-VEID-AFC, 20 nM Casp6, relative to 1% DMSO control) is 57.1 ± 4.7%; on recombinant active Casp6, 86.7%. Besides, the IC50 came out at 17.2 ± 3.6 µM in experiment [1] (Casp6-WT, compared with Casp6-K284A, read-out: IC50 of C13 for Casp6-WT (Fig. 4f)) and 13.2 ± 2.5 µM in experiment [1] (fluorescence assay, 20 nM Casp6 active sites, 10 µM Ac-VEID-AFC, read-out: IC50). In addition, the “potency for Casp6 of in-house synthesised compound compared to commercial compound” value in experiment [1] (synthesised in the authors' laboratory vs commercial source) is “lower potency”. The mode of inhibition entry on Casp6 (Lineweaver-Burk plot pattern) is recorded as “noncompetitive inhibition”. On Casp6 (from plot of Lineweaver-Burk slopes vs inhibitor concentration, Casp6, Ac-VEID-AFC, read-out: Ki (dissociation constant)), the Ki was determined as 5.3 µM.

In general, inhibition refers to how much of the control response was suppressed. In general, IC50 refers to the concentration that gives 50% inhibition. What is called Ki is the equilibrium dissociation constant of an inhibitor or competing ligand from its target.
